Reference: the NIST ThermoML archive (doi:10.1021/je900596d)

Conditions: Fluid (supercritical or subcritical phases), Vibrating tube method

FC(F)=C(F)C(F)(F)F [hexafluoropropene]
mass density [kg/m3]
Conditions | 343.26 K | 348.12 K
3.1 kPa | – | 0.11
3.7 kPa | – | 0.12
4.8 kPa | – | 0.23
5.4 kPa | – | 0.18
6.4 kPa | – | 0.27
7.4 kPa | – | 0.23
8.3 kPa | – | 0.31
8.9 kPa | – | 0.35
9.9 kPa | – | 0.43
11.5 kPa | – | 0.57
15.2 kPa | – | 0.72
17 kPa | – | 0.83
18.8 kPa | – | 0.9
22.4 kPa | – | 1.11
24.2 kPa | – | 1.25
27.7 kPa | – | 1.44
29.5 kPa | – | 1.44
31.2 kPa | – | 1.52
34.9 kPa | – | 1.74
36.7 kPa | – | 1.87
38.3 kPa | – | 1.89
41 kPa | – | 2.08
43.9 kPa | – | 2.27
46.5 kPa | – | 2.39
49.3 kPa | – | 2.49
55.8 kPa | – | 2.86
59.3 kPa | – | 3.01
62.6 kPa | – | 3.24
65.9 kPa | – | 3.31
72.5 kPa | – | 3.77
75.7 kPa | – | 3.95
78.9 kPa | – | 4.06
82.3 kPa | – | 4.24
89 kPa | – | 4.57
92.4 kPa | – | 4.78
95.9 kPa | – | 4.89
99.3 kPa | – | 5.1
102.8 kPa | – | 5.38
108.9 kPa | – | 5.66
121.1 kPa | – | 6.31
127.3 kPa | – | 6.62
139.4 kPa | – | 7.29
145.5 kPa | – | 7.59
151.6 kPa | – | 7.92
157.7 kPa | – | 8.3
168.6 kPa | – | 8.79
172.3 kPa | – | 9.11
176 kPa | – | 9.23
186.9 kPa | – | 9.89
190.6 kPa | – | 10.07
194.2 kPa | – | 10.28
201.5 kPa | – | 10.61
208.9 kPa | – | 10.99
216.2 kPa | – | 11.48
230.6 kPa | – | 12.26
237.9 kPa | – | 12.55
245.2 kPa | – | 13.05
252.4 kPa | – | 13.5
266.8 kPa | – | 14.29
274 kPa | – | 14.64
281 kPa | – | 15
295.2 kPa | – | 15.84
303.3 kPa | – | 16.23
310.5 kPa | – | 16.69
317.5 kPa | – | 17.06
324.5 kPa | – | 17.51
331.5 kPa | – | 17.9
338.4 kPa | – | 18.25
352.2 kPa | – | 19.05
359.1 kPa | – | 19.45
366 kPa | – | 19.85
379.7 kPa | – | 20.59
386.5 kPa | – | 20.98
393.2 kPa | – | 21.4
399.9 kPa | – | 21.73
413.4 kPa | – | 22.49
420.1 kPa | – | 22.92
426.9 kPa | – | 23.28
433.5 kPa | – | 23.69
443.2 kPa | – | 24.38
470.9 kPa | – | 25.92
484.7 kPa | – | 26.77
498.3 kPa | – | 27.51
515 kPa | – | 28.53
528 kPa | – | 29.29
541 kPa | – | 30.15
566.4 kPa | – | 31.68
575.8 kPa | 33.42 | –
579.2 kPa | – | 32.43
590.5 kPa | 34.28 | –
591.2 kPa | – | 33.18
603.3 kPa | – | 33.86
604.4 kPa | 35.15 | –
617.9 kPa | 35.97 | –
631.9 kPa | 36.94 | –
638.4 kPa | – | 36.05
646.4 kPa | 37.76 | –
655.4 kPa | – | 37.08
660.3 kPa | 38.68 | –
672.1 kPa | – | 38.15
674.2 kPa | 39.57 | –
688.2 kPa | 40.47 | –
688.5 kPa | – | 39.21
701.9 kPa | 41.42 | –
704.5 kPa | – | 40.22
715.6 kPa | 42.26 | –
720.3 kPa | – | 41.24
729.6 kPa | 43.14 | –
735.8 kPa | – | 42.16
743.3 kPa | 44.1 | –
756.9 kPa | 44.99 | –
765.5 kPa | – | 44.05
770.5 kPa | 45.84 | –
783.7 kPa | 46.78 | –
794.2 kPa | – | 45.95
797.6 kPa | 47.61 | –
808 kPa | – | 46.91
810.7 kPa | 48.57 | –
823.9 kPa | 49.41 | –
827.5 kPa | – | 48.2
844.7 kPa | – | 49.34
850.2 kPa | 51.23 | –
863 kPa | 52.13 | –
863.4 kPa | – | 50.7
876.3 kPa | 53.04 | –
889.1 kPa | 53.92 | –
890.4 kPa | – | 52.34
902.2 kPa | 54.71 | –
902.7 kPa | – | 53.25
914.9 kPa | 55.73 | –
915.6 kPa | – | 54.2
928.7 kPa | 56.6 | 55.05
941.5 kPa | 57.53 | –
945.4 kPa | – | 56.14
954 kPa | 58.46 | –
967.8 kPa | 59.43 | –
972.6 kPa | – | 58.01
981 kPa | 60.4 | –
985.8 kPa | – | 58.92
994.4 kPa | 61.4 | –
1005.6 kPa | – | 60.36
1008.2 kPa | 62.31 | –
1020.2 kPa | 63.29 | –
1023.4 kPa | – | 61.55
1034.9 kPa | 64.41 | –
1040.8 kPa | – | 62.84
1046.9 kPa | 65.28 | –
1057.8 kPa | – | 64.05
1060.3 kPa | 66.22 | –
1073.4 kPa | 67.25 | –
1074 kPa | – | 65.2
1087.5 kPa | 68.21 | –
1089.6 kPa | – | 66.39
1100.8 kPa | 69.23 | –
1108 kPa | – | 67.73
1115.6 kPa | 70.43 | –
1129.3 kPa | 71.49 | –
1138.6 kPa | – | 69.96
1141.9 kPa | 72.46 | –
1150.7 kPa | – | 70.83
1155.2 kPa | 73.52 | –
1168.1 kPa | – | 72.19
1170.3 kPa | 74.72 | –
1184.8 kPa | – | 73.38
1185.3 kPa | 75.94 | –
1200.7 kPa | 77.06 | –
1201.8 kPa | – | 74.83
1215.9 kPa | 78.32 | –
1219.5 kPa | – | 76.17
1231.1 kPa | 79.48 | –
1231.5 kPa | – | 77.05
1246.2 kPa | 80.8 | –
1248.8 kPa | – | 78.38
1260.9 kPa | 82.02 | –
1265.1 kPa | – | 79.72
1275.9 kPa | 83.2 | –
1280.3 kPa | – | 80.92
1290.3 kPa | 84.46 | –
1297.6 kPa | – | 82.21
1305.2 kPa | 85.7 | –
1313.7 kPa | – | 83.6
1318.4 kPa | 86.81 | –
1330.4 kPa | – | 84.96
1332.6 kPa | 88.06 | –
1346.3 kPa | – | 86.2
1347.2 kPa | 89.34 | –
1361.6 kPa | 90.6 | –
1362.7 kPa | – | 87.68
1375.5 kPa | 91.86 | –
1378.7 kPa | – | 88.93
1389.9 kPa | 93.09 | –
1395.3 kPa | – | 90.32
1403.7 kPa | 94.34 | –
1410.5 kPa | – | 91.58
1417.7 kPa | 95.63 | –
1426.3 kPa | – | 92.94
1431.1 kPa | 96.88 | –
1442.6 kPa | – | 94.4
1445 kPa | 98.11 | –
1458.7 kPa | 99.32 | –
1460.3 kPa | – | 95.93
1471.8 kPa | 100.55 | –
1473.3 kPa | – | 97.06
1485.2 kPa | 101.78 | –
1487.3 kPa | – | 98.32
1498.3 kPa | 103.12 | –
1511.1 kPa | 104.29 | –
1511.6 kPa | – | 100.57
1540.1 kPa | – | 103.11
1562.1 kPa | 109.24 | –
1566 kPa | – | 105.5
1588.6 kPa | 111.94 | –
1592.2 kPa | – | 107.78
1614.7 kPa | 114.55 | –
1616.1 kPa | – | 110.1
1639.3 kPa | – | 112.32
1641.2 kPa | 117.35 | –
1669.2 kPa | 120.33 | –
1683.8 kPa | – | 116.62
1691 kPa | 122.68 | –
1708.4 kPa | – | 119.29
1719.3 kPa | 125.81 | –
1732.6 kPa | – | 121.75
1745.8 kPa | 128.82 | –
1756.5 kPa | – | 124.29
1773.3 kPa | 132.05 | –
1800.9 kPa | 135.31 | –
1827.4 kPa | 138.58 | –
1854.7 kPa | 141.97 | –
1880.9 kPa | 145.46 | –
1908.3 kPa | 149.04 | –
1933.9 kPa | 152.57 | –
1960.3 kPa | 156.37 | –
1986.1 kPa | 160.18 | –
2014.5 kPa | 164.44 | –
2041.7 kPa | 168.76 | –
2069.4 kPa | 173.21 | –
2096.3 kPa | 177.82 | –
2121.6 kPa | 182.61 | –
2139 kPa | 185.89 | –
2156.2 kPa | 189.13 | –
2172.4 kPa | 192.4 | –
2188.6 kPa | 195.87 | –
2204.8 kPa | 199.3 | –
2221.6 kPa | 203.18 | –
2237.7 kPa | 208.04 | –
2240 kPa | 209.71 | –
2240.5 kPa | 210.31 | –
2241 kPa | 210.66 | –
2241.7 kPa | 211.34 | –
2242.3 kPa | 212.06 | –
2242.9 kPa | 213.01 | –
2243.5 kPa | 214.62 | –
2243.9 kPa | 215.07 | –
2244.6 kPa | 216.87 | –
2245.3 kPa | 218.74 | –
2245.7 kPa | 219.44 | –
2246.2 kPa | 220.03 | –
2246.7 kPa | 220.73 | –
2247.1 kPa | 221.76 | –
2247.5 kPa | 223.54 | –
2248 kPa | 224.32 | –
2248.4 kPa | 225.47 | –
2248.8 kPa | 227.07 | –
2249.3 kPa | 230.72 | –
2249.7 kPa | 239.12 | –
